Source: patent US20110319392A1, “Thiazole Sulfonamide And Oxazole Sulfonamide Kinase Inhibitors” (priority 2009, published 2011)

How the values were obtained:
[1] = target: B-Raf (Homo sapiens, UniProt P15056); test: B-Raf Accelerated MEK ATPase assay (BRAMA), Method A or B; format: biochemical; details: Method B: final MEK 150 nM, single end point read
Summary of the method: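 Activated Raf plus non-phosphorylated MEK drives MEK-mediated ATP hydrolysis; ADP formation coupled via pyruvate kinase/lactate dehydrogenase to NADH oxidation. Method A read kinetically; Method B used 150 nM final MEK and a single end-point read.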

[2] = test system: HN5 tumor cells; test: Cell growth inhibition assay (CellTiter-Glo), HN5; format: cell-based, Human; details: Homo sapiens, 72 h; 3 days incubation
Summary of the method: (§1)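 Cells plated at 500 cells/well in their growth media, dosed next day with nine-step 1:3 compound dilutions (final DMSO 0.2%), then incubated 3 days at 37° C, 5% CO2. Total ATP read by CellTiter-Glo luminescence as a surrogate for cell number; IC50 interpolated from 4-parameter fit versus DMSO controls.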

[3] = test system: BT474 tumor cells; test: Cell growth inhibition assay (CellTiter-Glo), BT474; format: cell-based, Human; details: Homo sapiens, BT-474, 72 h, 3 days incubation
[4] = test system: Colo205 tumor cells; test: Cell growth inhibition assay (CellTiter-Glo), Colo205; format: cell-based, Human; details: Homo sapiens, COLO 205, 72 h; 3 days incubation
Summary of the method: as §1

[5] = test system: A375P F11s tumor cells; test: Cell growth inhibition assay (CellTiter-Glo), A375P F11s; format: cell-based, Human; details: Homo sapiens
Summary of the method: as §1

B-Raf, sequence (P15056 whole entry): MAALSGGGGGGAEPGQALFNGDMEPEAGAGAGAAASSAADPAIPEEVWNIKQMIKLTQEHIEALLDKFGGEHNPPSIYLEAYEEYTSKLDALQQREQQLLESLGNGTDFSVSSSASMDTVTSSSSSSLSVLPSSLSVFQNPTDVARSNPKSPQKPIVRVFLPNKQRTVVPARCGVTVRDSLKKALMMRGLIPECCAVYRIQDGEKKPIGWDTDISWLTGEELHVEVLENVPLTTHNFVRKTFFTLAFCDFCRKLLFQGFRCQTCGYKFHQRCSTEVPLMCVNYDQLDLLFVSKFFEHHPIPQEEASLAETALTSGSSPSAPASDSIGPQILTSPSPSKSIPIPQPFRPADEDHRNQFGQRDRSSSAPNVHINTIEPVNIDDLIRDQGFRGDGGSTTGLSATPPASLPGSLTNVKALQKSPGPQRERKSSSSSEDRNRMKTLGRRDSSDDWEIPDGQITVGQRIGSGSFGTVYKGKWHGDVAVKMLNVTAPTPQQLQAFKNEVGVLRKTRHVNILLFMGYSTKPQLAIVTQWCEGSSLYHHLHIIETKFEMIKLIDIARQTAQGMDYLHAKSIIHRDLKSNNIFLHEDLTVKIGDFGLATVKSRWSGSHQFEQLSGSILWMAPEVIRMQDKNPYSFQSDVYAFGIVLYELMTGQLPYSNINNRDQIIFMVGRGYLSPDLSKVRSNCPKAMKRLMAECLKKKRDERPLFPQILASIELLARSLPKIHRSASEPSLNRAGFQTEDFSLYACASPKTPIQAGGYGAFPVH

SMILES	IC50 [1]	IC50 [2]	IC50 [3]	IC50 [4]	IC50 [5]
CCOc1ccc(Nc2nccc(-c3sc(C(C)C)nc3-c3ccc(F)c(NS(=O)(=O)c4c(F)cccc4F)c3)n2)cc1N1CCN(CCF)CC1 [Example 98]	< 100 nM	> 1000 nM	> 1000 nM	100 to 1000 nM	100 to 1000 nM
CC(C)(C)c1nc(-c2ccc(F)c(NS(=O)(=O)c3c(F)cccc3F)c2)c(-c2ccnc(Nc3ccc(N4CCN(CCF)CC4)c(F)c3)n2)s1 [Example 99]	< 100 nM	> 1000 nM	> 1000 nM	< 100 nM	100 to 1000 nM
CC(C)c1nc(-c2ccnc(NS(=O)(=O)c3c(F)cccc3F)c2)c(-c2ccnc(Nc3ccc(N4CCN(CCF)CC4)c(F)c3)n2)s1 [Example 100]	< 100 nM	< 100 nM	> 1000 nM	< 100 nM	< 100 nM
CC(C)c1nc(-c2cc(F)c(F)c(NS(=O)(=O)c3cccc(F)c3)c2)c(-c2ccnc(Nc3ccc(N4CCN(CCF)CC4)c(F)c3)n2)s1 [Example 101]	< 100 nM	100 to 1000 nM	> 1000 nM	100 to 1000 nM	100 to 1000 nM
CC(C)c1nc(-c2ccc(F)c(NS(=O)(=O)c3c(F)cccc3F)c2)c(-c2ccnc(Nc3ccncc3)n2)s1 [Example 102]	< 100 nM	> 1000 nM	> 1000 nM	100 to 1000 nM	100 to 1000 nM
CN1CCC(c2nc(-c3ccc(F)c(NS(=O)(=O)c4c(F)cccc4F)c3)c(-c3ccnc(Nc4ccc(N5CCOCC5)nc4)n3)s2)CC1 [Example 106]	< 100 nM	100 to 1000 nM	> 1000 nM	100 to 1000 nM	< 100 nM
CC(C)c1nc(-c2ccc(F)c(NS(=O)(=O)c3ccccc3C#N)c2)c(-c2ccnc(Nc3ccc(N4CCOCC4)nc3)n2)s1 [Example 107]	< 100 nM	> 1000 nM	> 1000 nM	100 to 1000 nM	100 to 1000 nM
CCOc1ccc(Nc2nccc(-c3sc(N4CCCC4)nc3-c3cccc(NS(=O)(=O)c4c(F)cccc4F)c3)n2)cc1N1CCN(CCS(C)(=O)=O)CC1 [Example 109]	< 100 nM	> 1000 nM	100 to 1000 nM	< 100 nM	< 100 nM
CN(C)c1nc(-c2ccc(F)c(NS(=O)(=O)c3c(F)cccc3F)c2)c(-c2ccnc(Nc3ccc(N4CCN(S(C)(=O)=O)CC4)nc3)n2)s1 [Example 112]	< 100 nM	> 1000 nM	> 1000 nM	100 to 1000 nM	100 to 1000 nM
CC(C)c1nc(-c2ccc(F)c(NS(=O)(=O)c3c(F)cccc3F)c2)c(-c2ccnc(Nc3cccc(CCS(N)(=O)=O)c3)n2)s1 [Example 113]	< 100 nM	> 1000 nM	100 to 1000 nM	100 to 1000 nM	100 to 1000 nM
O=S(=O)(Nc1cc(-c2nc(N3CCCC3)oc2-c2ccnc(Nc3ccc(N4CCN(CCF)CC4)c(F)c3)n2)ccc1F)c1c(F)cccc1F [Example 114]	100 to 1000 nM	> 1000 nM	> 1000 nM	100 to 1000 nM	100 to 1000 nM
Cc1cc(Nc2nccc(-c3sc(C(C)C)nc3-c3ccc(F)c(NS(=O)(=O)c4c(F)cccc4F)c3)n2)ccn1 [Example 116]	< 100 nM	> 1000 nM	> 1000 nM	< 100 nM	100 to 1000 nM
CC(C)c1nc(-c2ccc(F)c(NS(=O)(=O)c3c(F)cccc3F)c2)c(-c2ccnc(Nc3ccnc(N4CCOCC4)c3)n2)s1 [Example 117]	< 100 nM	100 to 1000 nM	> 1000 nM	< 100 nM	100 to 1000 nM
CS(=O)(=O)CCN1CCN(c2ccc(Nc3nccc(-c4oc(N5CCCC5)nc4-c4ccc(F)c(NS(=O)(=O)c5c(F)cccc5F)c4)n3)cc2F)CC1 [Example 119]	< 100 nM	> 1000 nM	> 1000 nM	100 to 1000 nM	100 to 1000 nM
COc1cc(N2CCN(CCS(C)(=O)=O)CC2)c(C)cc1Nc1nccc(-c2sc(C(C)(C)C)nc2-c2cccc(NS(=O)(=O)c3c(F)cccc3F)c2)n1 [Example 120]	< 100 nM	> 1000 nM	> 1000 nM	< 100 nM	100 to 1000 nM
O=S(=O)(Nc1cc(-c2nc(N3CCOCC3)sc2-c2ccnc(Nc3ccc(N4CCOCC4)nc3)n2)ccc1F)c1c(F)cccc1F [Example 121]	< 100 nM	100 to 1000 nM	> 1000 nM	< 100 nM	100 to 1000 nM
O=S(=O)(Nc1cccc(-c2nc(N3CCOCC3)sc2-c2ccnc(Nc3ccc(N4CCOCC4)nc3)n2)c1F)c1c(F)cccc1F [Example 122]	< 100 nM	100 to 1000 nM	> 1000 nM	< 100 nM	< 100 nM
CC(C)c1nc(-c2cccc(NS(=O)(=O)c3c(F)cccc3F)c2F)c(-c2ccnc(Nc3ccc(N4CCOCC4)nc3)n2)s1 [Example 123]	< 100 nM	100 to 1000 nM	> 1000 nM	< 100 nM	< 100 nM
